Experimental data from patent publication US11278629B2, “Methods for improving anti-CD37 immunoconjugate therapy” (Debiopharm International, S.A., priority 2016, dated 2022).

Experiments:
lymphoma cell lines [1] = assay: Cell proliferation, MTT assay, fifty-four lymphoma cell lines; type: cell-based; conditions: 72 hours exposure, read-out: median IC50
Source text: (§1) Fifty-four lymphoma cell lines (ALCL, anaplastic large cell lines (n=5); CLL, chronic lymphocytic leukemia (n=2); ABC-DLBCL, activated B cell like diffuse large B cell (n=7); GCB-DLBCL, germinal center B cell like diffuse large B cell (n=20); MCL, mantle cell lymphoma (n=10); MZL, marginal zone lymphoma (n=6); PMBCL, Primary Mediastinal Large B-Cell Lymphoma (n=1); SMZL, splenic marginal zone lymphoma (n=3)) were exposed to increasing doses of IMGN529 or to the unconjugated cytotoxic payload DM1 for 72 hours. Cell proliferation was measured using the MTT assay. Apoptosis induction was defined by at least a 1.5-fold increase in caspase 3/7 signal activation with respect to controls using the Promega ApoTox-Glo Triplex Assay. CD37 surface expression was assessed by cytofluorimetry. Gene expression profiling (GEP) was done with the Illumina HumanHT-12 Expression BeadChips on untreated cell lines followed by GSEA (NES>|2|, P<0.05, FDR<0.25) and limma t-test (FC>|1.2|; P<0.05; top 200 up and top 200 down).

lymphoma cell lines [2] = assay: Apoptosis induction, caspase 3/7 activation (Promega ApoTox-Glo Triplex Assay); type: cell-based; conditions: 33/54 cell lines; apoptosis = at least 1.5-fold increase in caspase 3/7 signal vs controls
Source text: as §1

Row | Compound | IC50 (lymphoma cell lines [1]) | lymphoma cell lines in which apoptosis was induced (lymphoma cell lines [2])
1 | COc1cc2cc(c1Cl)N(C)C(=O)C[C@H](OC(=O)[C@H](C)N(C)C(=O)CCS)[C@]1(C)O[C@H]1[C@H](C)C1C[C@@](O)(NC(=O)O1)[C@H](OC)/C=C/C=C(\C)C2 [DM1, N^2′-deacetyl-N^2′-(3-mercapto-1-oxopropyl)-maytansine] | 0.03 nM | –
2 | IMGN529: immunoconjugate containing the huCD37-3 antibody, the SMCC linker, and the DM1 maytansinoid | – | 61%
